Read-outs that look alike come from different tables or passages of the source.
What was measured:
[1] = tested on: Bacillus subtilis ATCC 6633; experiment: Antimicrobial activity, MIC determination; format: cell-based
Protocol: (§1) The in vitro antimicrobial activity of the compounds was evaluated by determining the minimum inhibitory concentration (MIC) against the Gram-positive microorganisms Staphylococcus aureus ATCC 6538 (S. aureus) and Bacillus subtilis ATCC 6633 (B. subtilis) and the Gram-negative microorganism Xanthomonas campestris ATCC 1395 (X. campestris). The affinity of the compounds for bovine serum albumin (BSA) and human serum albumin (HSA) was studied by fluorescence emission spectroscopy, and the corresponding binding constants were determined. Furthermore, the interaction of the compounds with calf-thymus DNA (CT DNA) was investigated to determine the possible mode of interaction by the following methods: (i) UV–vis spectroscopy (where the DNA-binding constants of the complexes (Kb) were also determined), (ii) DNA-viscosity measurements, (iii) cyclic voltammetry and (iv) competitive DNA-binding studies with the classic intercalator ethidium bromide (EB) performed by fluorescence emission spectroscopy.
(§2) Three bacterial strains, one Gram(−) (X. campestris) and two Gram(+) (S. aureus and B. subtilis), were used in order to test the antimicrobial activity of the compounds.
(§3) The antimicrobial activity of the compounds was evaluated b y determining their respective MIC values towards one Gram–( –) (Xanthomonas campestris ATCC 1395 (X. campestris)) and two Gram–(+) (Staphylococcus aureus ATCC 6538 (S. aureus) and Bacillus subtilis ATCC 6633 (B. subtilis)) bacterial species. Cultures of these microbial strains were grown on a rich selective agar medium and stored at 4°C. The selective media used were Nutrient Agar or Broth for B. subtilis and S. aureus, and Yeast Mold Agar or Broth for X. campestris . Cells picked from the surface of the stored cultures were used to initiate liquid pre–cultures of the same selective medium at an initial turbidity of roughl y 1 McFarland unit. Pre–cultures were incubated for 24 h in a rotar y sh aking incubator and subsequently the y were used to inoculate the test cultures used for the determination of MIC at an initial turbidity of 0.5 McFarland units. The test cultures consisted of Mueller–Hinton broth (Deben Diagnostics Ltd) containing different concentrations of the compounds. Different concentrations were achieved as follows: the compounds were freshly dissolved in DMSO to a concentration of 1 mg/mL and they were diluted with DMSO, using the method of progressive double dilution. Therefore, working solutions with decreasing concentrations of the compounds under investigation were achieved. The working solutions were subsequently diluted to the final desired concentration b y addition to the growth medium at a proportion of 2:98. MIC values were determined as the lowest concentrations of the tested compounds that inhibited visible growth of each respective organism after a 24–h incubation [ S1]. Bacterial growth was determined b y measuring the turbidit y of appropriatel y diluted cultures at 600 nm with reference to equall y diluted sterile growth medium and the inhibition achieved was calculated b y comparing the turbidit y of each culture to the average of the turbidit y of three non–inhibited cultures. All test cultures were grown in triplicates and for the determination of MIC, growth had to be inhibited in at least two cultures of the triplicate. In cubation temperatur e at all stages was 37°C ex cept for X. campestris t h at was cultivated at 28°C [S2]. […]
(§4) The fluorescence spectra of the compounds were recorded under the same experimental conditions and presented a low–intensity emission band in the region 405–410 nm .

[2] = tested on: Staphylococcus aureus ATCC 6538; experiment: Antimicrobial activity, MIC determination; format: cell-based
Protocol: as §1, §2, §3, §4

[3] = tested on: Xanthomonas campestris ATCC 1395; experiment: Antimicrobial activity, MIC determination; format: cell-based
Protocol: as §1, §2, §3, §4

[4] = tested on: EB–DNA adduct (CT DNA); experiment: Competitive study with EB (EB–DNA fluorescence quenching); format: binding, calf; conditions: for Ksv, Stern–Volmer constant: EB–DNA adduct; for ΔI/Io, percentage of EB–DNA fluorescence quenching: [EB] = 20 μM, [DNA] = 26 μM, λexc 540 nm, λem 592 nm; for EB–DNA relative fluorescence emission intensity, % of the initial (I/Io): λemission = 592 nm, final value (up to), Figure S14; for kq, EB–DNA quenching constant: τo = 23 ns
Protocol: Ethidium bromide is a typical marker of intercalation because it can intercalate between adjacent DNA bases with its planar phenanthridine ring.
The fluorescence emission spectra of the EB–DNA adduct ([EB] = 20 μM, [DNA] = 26 μM) in the absence and presence of the compounds were recorded at increasing amounts of the respective compounds. […] As a conclusion, an intercalative interaction of the complexes with CT DNA can be proposed.
The values of the Stern–Volmer constants (Ksv) for the compounds were calculated using the linear Stern–Volmer equation (Equation (S2)) and were of the order of 10^5 M^−1 (Table 8), indicating tight binding of the complexes with DNA [61]. The Ksv values for the complexes are in the range found for a number of metal(II)–quinolone complexes, and complex 12 presents the highest Ksv value (Ksv = 7.25(±0.30) × 10^5 M^−1) among the compounds studied. In addition, the EB–DNA quenching constants (kq) for the compounds were calculated with Equation (S3), assuming τo = 23 ns as the fluorescence lifetime. The values of kq (Table 8) are much higher than the value of 10^10 M^−1s^−1, indicating a static mechanism of EB–DNA fluorescence quenching induced by the compounds, which can result from the formation of a new adduct apparently consisting of each complex and DNA [61].
In order to determine and confirm the DNA–binding mode of the compounds, a competitive study with EB as an intercalating marker is performed b y fluorescence emission spectroscopy.
Therefo re, the E B–displacing abilit y of the compounds from its EB –DN A conjugate was ex amined.
The DNA–EB adduct was prepared b y addition of 20 μM EB and 26 μM CT DNA in buffer solution (150 mM NaCl and 15 mM trisodium citrate at pH 7.0). The potential intercalation of the compounds between the DNA–bases was studied by the addition of a certain amount of the compound solution into the EB–DNA adduct solution. The influence of the compounds on the EB – DNA solution was monitored through the changes of the fluorescence emission spectra at excitation […]
wavelen gth (λex ) at 540 nm [S3]. […]
room temperature in solution or in the presence of DNA, under the same experimental conditions (λex = 540 nm). Bearing t hat in mind, the observed quenching of the EB–DNA solution is evidentl y associated to the displacement of EB from its EB–DNA adduct.
The quenching effici ency (KSV) for each compound was assessed according to the Stern – Volmer equation: Io =1+ k τ [Q] = 1+ K [Q], (eq. S2) [S3] where I0 and I = the fluorescence […]
emission intensities of EB–DNA in the absence and presence of the quencher, respectivel y, [Q] = the concentration of the quencher (i.e. compounds). KSV is obtained from t he Stern–Volmer plots b y the slope of the diagram I0/ I versus [Q]. Taking τ0 = 23 ns as the fluorescence lifetime of the EB– DNA s ystem [S5], the EB –DNA quenching constants (k q) of the compounds can be determined accordin g to eq.S3: K SV = kqτo . […]
[S2] Irgi, E.P.; Geromichalos, G.D.; Balala, S.; Kljun, J.; Kalogiannis, S.; Papadopoulos, A.; Turel, I.; Psomas, G. Cobalt(II) complexes with quinolone antimicrobial drug oxolinic acid: […]
[ S 5] Heller, D.P.; Greenstock, C.L. Fluorescence lifetime analysis of DNA intercalated ethidium bromide and quenching by free d ye. Biophys. Chem . 1994, 50, 305–312.

[5] = target: T1, human serum albumin (HSA) (Homo sapiens, UniProt P02768); experiment: Albumin binding by tryptophan fluorescence emission quenching; conditions: for kq(HSA), HSA-quenching constant: buffer pH 7.0, λexc 295 nm, Stern–Volmer, τ0 = 10^–8 s; for HSA fluorescence, % of the initial fluorescence intensity (I/Io): λem,max = 351 nm, final value of titration (Figure S10)
T1 construct: purchased
Protocol: (§5) Serum albumins (Sas) are the most abundant serum proteins and play a role in the circulatory system, primarily in the transport of drugs and other bioactive small molecules through the bloodstream.
(§6) The SA-quenching constants (kq) for the compounds (Table 5) were calculated with the Stern–Volmer quenching equation (Equations (S2) and (S3)).
(§7) Albumin-binding constants (K) were calculated using the Scatchard equation (Equation (S4)). […]
(§8) S2. Interaction with serum albumins
(§9) The albumin–binding study for the compounds was carried out b y fluorescence emission

[6] = target: T2, bovine serum albumin (BSA) (Bos taurus, UniProt P02769); experiment: as above; conditions: for kq(BSA), BSA-quenching constant: buffer pH 7.0, λexc 295 nm, Stern–Volmer, τ0 = 10^–8 s; for BSA fluorescence, % of the initial fluorescence intensity (I/Io): λem,max = 342 nm, final value of titration (Figure S11)
T2 construct: purchased
Protocol: as §5, §6, §7, §8, §9

[7] = B. subtilis, 24-h incubation, 37°C
[8] = S. aureus, 24-h incubation, 37°C
[9] = X. campestris, 24-h incubation, 28°C

T1 sequence (P02768 25-609): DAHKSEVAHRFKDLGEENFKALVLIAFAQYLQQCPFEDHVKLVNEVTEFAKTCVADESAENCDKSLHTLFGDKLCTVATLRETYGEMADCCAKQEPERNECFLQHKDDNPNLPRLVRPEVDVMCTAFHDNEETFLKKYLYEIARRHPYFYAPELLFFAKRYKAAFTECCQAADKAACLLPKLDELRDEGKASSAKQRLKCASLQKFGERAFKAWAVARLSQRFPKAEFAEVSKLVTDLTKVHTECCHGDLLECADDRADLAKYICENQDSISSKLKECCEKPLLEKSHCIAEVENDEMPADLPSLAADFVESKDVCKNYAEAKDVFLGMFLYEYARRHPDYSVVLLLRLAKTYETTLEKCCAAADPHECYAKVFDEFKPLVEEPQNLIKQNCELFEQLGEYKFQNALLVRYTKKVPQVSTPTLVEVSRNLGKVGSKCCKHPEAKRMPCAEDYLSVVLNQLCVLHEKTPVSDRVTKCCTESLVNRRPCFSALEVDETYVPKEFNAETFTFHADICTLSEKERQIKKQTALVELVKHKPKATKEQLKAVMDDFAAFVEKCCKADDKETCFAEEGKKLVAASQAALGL
T2 sequence (P02769 25-607): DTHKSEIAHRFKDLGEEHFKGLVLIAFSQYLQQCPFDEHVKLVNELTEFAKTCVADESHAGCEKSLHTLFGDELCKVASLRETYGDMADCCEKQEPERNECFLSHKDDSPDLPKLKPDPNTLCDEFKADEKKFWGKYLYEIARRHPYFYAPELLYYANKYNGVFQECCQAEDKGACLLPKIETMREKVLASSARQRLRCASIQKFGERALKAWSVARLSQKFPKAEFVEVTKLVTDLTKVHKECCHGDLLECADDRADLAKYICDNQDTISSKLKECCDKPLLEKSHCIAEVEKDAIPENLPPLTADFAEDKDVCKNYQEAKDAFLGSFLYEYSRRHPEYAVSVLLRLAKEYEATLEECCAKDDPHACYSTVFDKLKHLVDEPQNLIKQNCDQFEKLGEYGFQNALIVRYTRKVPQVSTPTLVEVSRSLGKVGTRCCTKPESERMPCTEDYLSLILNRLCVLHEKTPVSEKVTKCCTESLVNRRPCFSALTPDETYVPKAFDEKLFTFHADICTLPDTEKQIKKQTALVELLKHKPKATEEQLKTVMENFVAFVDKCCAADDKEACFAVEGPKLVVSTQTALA

SMILES: CN1CCN(c2c(F)cc3c(=O)c(C(=O)[O-])cn(CCF)c3c2F)CC1.CN1CCN(c2c(F)cc3c(=O)c(C(=O)[O-])cn(CCF)c3c2F)CC1.[Zn+2].c1cnc2c(c1)ccc1cccnc12 [complex 14, [Zn(flrx)2(phen)]]
- MIC [1, 7]: 8 µg/mL
- MIC (values in parentheses) [1, 7]: 8.1 µM
- MIC [2, 8]: 8 µg/mL
- MIC (values in parentheses) [2, 8]: 8.1 µM
- MIC [3, 9]: 16 µg/mL
- MIC (values in parentheses) [3, 9]: 16.3 µM
- Ksv, Stern–Volmer constant [4]: 3.03(±0.05) × 10^5 M^–1
- ΔI/Io, percentage of EB–DNA fluorescence quenching [4]: 77.9%
- EB–DNA relative fluorescence emission intensity, % of the initial (I/Io) [4]: 22.1%
- kq, EB–DNA quenching constant [4]: 1.32(±0.02) × 10^13 M^−1s^−1
- K(HSA), HSA-binding constant ([5]; HSA 3 μM, buffer pH 7.0, Scatchard equation): 6.16(±0.43) × 10^4 M^−1
- kq(HSA), HSA-quenching constant ([5]; HSA 3 μM): 1.10(±0.04) × 10^13 M^−1s^−1
- HSA fluorescence, % of the initial fluorescence intensity (I/Io) [5]: 33.5%
- K(BSA), BSA-binding constant ([6]; BSA 3 μM, buffer pH 7.0, Scatchard equation): 5.56(±0.25) × 10^4 M^−1
- kq(BSA), BSA-quenching constant ([6]; BSA 3 μM): 1.61(±0.07) × 10^13 M^−1s^−1
- BSA fluorescence, % of the initial fluorescence intensity (I/Io) [6]: 25.8%

SMILES: CN1CCN(c2c(F)cc3c(=O)c(C(=O)O)cn(CCF)c3c2F)CC1 [Fleroxacin, 6,8-difluoro-1-(2–fluoroethyl)-7-(4-methylpiperazin-1-yl)-4-oxoquinoline-3-carboxylic acid]
- MIC ([1]; Bacillus subtilis, ATCC6633, 24 h): 4 µg/mL
- MIC ([1]; Bacillus subtilis, ATCC6633, 24 h, read-out: MIC (values in parentheses)): 10.8 µM
- MIC ([2]; Staphylococcus aureus, ATCC6538, 24 h): 4 µg/mL
- MIC ([2]; Staphylococcus aureus, ATCC6538, 24 h, read-out: MIC (values in parentheses)): 10.8 µM
- MIC ([3]; Xanthomonas campestris, ATCC1395, 24 h): 8 µg/mL
- MIC ([3]; Xanthomonas campestris, ATCC1395, 24 h, read-out: MIC (values in parentheses)): 21.7 µM
- Ksv, Stern–Volmer constant [4]: 4.64(±0.14) × 10^5 M^–1
- ΔI/Io, percentage of EB–DNA fluorescence quenching [4]: 65.8%
- EB–DNA relative fluorescence emission intensity, % of the initial (I/Io) [4]: 34.2%
- kq, EB–DNA quenching constant [4]: 2.02(±0.06) × 10^13 M^−1s^−1
- Kd [5]: 15.2 µM
- kq(HSA), HSA-quenching constant ([5]; HSA 3 μM): 2.69(±0.11) × 10^12 M^−1s^−1
- HSA fluorescence, % of the initial fluorescence intensity (I/Io) [5]: 66.5%
- Kd [6]: 30.5 µM
- kq(BSA), BSA-quenching constant ([6]; BSA 3 μM): 6.19(±0.23) × 10^12 M^−1s^−1
- BSA fluorescence, % of the initial fluorescence intensity (I/Io) [6]: 47.5%

From paper PMC9144902, “Metal(II) Complexes of the Fluoroquinolone Fleroxacin: Synthesis, Characterization and Biological Profile” (Pharmaceutics, 2022)
